This is an account of results in patent US20230357870A1 (priority 2020, published 2023).

Entries after “also recorded” stand apart in the source; their conditions may differ. Like-named read-outs stand apart in the source and are kept apart here.

Data set [1] deals with T7GG-scv2-luc-GFP replicon. In words: microbe, parasite or virus in culture. Format: cell-based, SARS-CoV-2.
Data set [2] concerns T7-scv2-luc-GFP replicon (SEQ ID NO: 2). The experiment in a line: microbe, parasite or virus in culture. The format is cell-based, SARS-CoV-2.
For data set [3], the system named is pSmart BAC T7-scv2-replicon. The experiment in a line: microbe, parasite or virus in culture. Format: cell-based, SARS-CoV-2. Conditions: read-out: Antiviral activity (EC50) against T7-scv2-replicon.
For data set [4], the system named is pSmart BAC T7-scv1-replicon. The experiment in a line: microbe, parasite or virus in culture. The format is cell-based, SARS-CoV-1. As to conditions: read-out: Antiviral activity (EC50) against T7-scv1-replicon.
Data set [5] relates to pSmart BAC T7-mcv-replicon. In words: microbe, parasite or virus in culture. The format is cell-based, MERS. As to conditions: for EC50: read-out: Antiviral activity (EC50) against T7-mcv-replicon.
[6] abbreviates: Severe acute respiratory syndrome coronavirus 2, HEK-293T.
Setting [7] is: Severe acute respiratory syndrome coronavirus 2, Calu-1.
Setting [8] is: Severe acute respiratory syndrome coronavirus 2, Huh7.5.
[9] abbreviates: Severe acute respiratory syndrome coronavirus 2, A549.
The mark [10] stands for this setting: Severe acute respiratory syndrome coronavirus 2, Vero.
Where [11] appears, read: Severe acute respiratory syndrome coronavirus, HEK-293T.
The mark [12] stands for this setting: Middle East respiratory syndrome-related coronavirus, HEK-293T.

As for `Cc1cccc(/C=N/Nc2cc(N3CCOCC3)nc(OCCc3ccccn3)n2)c1` [Apilimod, apilimod], the concentration for a half-maximal effect (EC50) in data set [1] (setting [6]), in data set [2] (setting [7]) and in data set [2] (setting [8]) was greater than 42 µM each time.
As to `CN(C)C(=O)COC(=O)Cc1ccc(OC(=O)c2ccc(NC(=N)N)cc2)cc1` [Camostat, camostat], the EC50 in data set [1] (setting [6]), in data set [2] (setting [9]), in data set [2] (setting [7]), in data set [2] (setting [6]) and in data set [2] (setting [10]) was greater than 42 µM in each case.
For `N#C[C@@]1(c2ccc3c(N)ncnn23)O[C@H](CO)[C@@H](O)[C@H]1O` [GS-441524], the half-maximal effective concentration (EC50) in data set [3] (setting [6]) is 0.603 ± 0.105 µM; in data set [1] (setting [9]), 0.716 ± 0.311 µM; in data set [1] (setting [7]), 1 ± 0.217 µM; in data set [1] (setting [6]), 0.657 ± 0.0664 µM; in data set [1] (setting [8]) it was 0.831 ± 0.201 µM; in data set [1] (setting [10]), 0.324 ± 0.173 µM. Further, the EC50 in data set [4] (setting [11]) came out at 1.11 ± 0.0865 µM; in data set [2] (setting [9]) it was 1.47 ± 0.163 µM; in data set [2] (setting [7]), 1.33 ± 0.27 µM; in data set [2] (setting [6]), 0.603 ± 0.131 µM; in data set [2] (Severe acute respiratory syndrome coronavirus 2, HEK-293T, 30 h, read-out: potency in inhibiting SARS-CoV-2 replicon replication (EC50), determined by % GFP signal) it was 0.645 ± 0.0543 µM; in data set [2] (Severe acute respiratory syndrome coronavirus 2, HEK-293T, 30 h, read-out: potency in inhibiting SARS-CoV-2 replicon replication (EC50), determined by % luciferase activity), 0.502 ± 0.109 µM. For the same molecule, the half-maximal effective concentration (EC50) in data set [2] (setting [8]) is 1.03 ± 0.354 µM; in data set [2] (setting [10]), 0.302 ± 0.0198 µM; in data set [5] (setting [12]), 5.58 ± 0.357 µM. In addition, the “antiviral activity (in words)” value in data set [1] is “active”. In addition, in the data set with 293T cells, the cytotoxicity result was “No cytotoxicity was detected”. Moreover, the “concentration to achieve 50% inhibition, MERS replicon compared with SARS-CoV-2 or SARS-CoV-1 replicon” value in data set [5] was “greater concentration”.
As for `CC(C)(C)NC(=O)N[C@H](C(=O)N1C[C@H]2[C@@H]([C@H]1C(=O)NC(CC1CCC1)C(=O)C(N)=O)C2(C)C)C(C)(C)C` (stereo partly shown) [MK-3034, Boceprevir], the EC50 in data set [3] (setting [6]) was found to be 3.55 ± 0.347 µM; in data set [4] (setting [11]) it was 6.41 ± 0.427 µM; in data set [5] (setting [12]) it was 4.67 ± 0.519 µM.
In the case of `N=C(N)c1ccc2cc(OC(=O)c3ccc(N=C(N)N)cc3)ccc2c1` [Nafamostat, nafamostat], the 50% effective concentration (EC50) in data set [1] (setting [6]) was greater than 42 µM; in data set [2] (setting [9]), greater than 42 µM; in data set [2] (setting [7]), greater than 42 µM; in data set [2] (setting [6]) it was greater than 42 µM; in data set [2] (Severe acute respiratory syndrome coronavirus 2, Vero C1008), greater than 42 µM.
Take `CC(C)C[C@H](NC(=O)c1cc2ccccc2o1)C(=O)N[C@H]1CC[C@@H](C)N(S(=O)(=O)c2ccccn2)CC1=O` [Relacatib, relacatib]: the EC50 in data set [1] (setting [6]), in data set [2] (setting [9]), in data set [2] (setting [7]), in data set [2] (setting [6]) and in data set [2] (setting [10]) was greater than 42 µM each time.
With `CCC(CC)COC(=O)[C@H](C)N[P@](=O)(OC[C@H]1O[C@@](C#N)(c2ccc3c(N)ncnn23)[C@H](O)[C@@H]1O)Oc1ccccc1` [Remdesivir, remdesivir], the EC50 in data set [3] (setting [6]) was 0.0156 ± 0.0051 µM; in data set [4] (setting [11]) it was 0.0429 ± 0.0034 µM; in data set [2] (setting [9]) it was 0.184 µM; in data set [2] (setting [7]), 0.0628 µM; in data set [2] (setting [6]), 0.0113 µM; in data set [2] (setting [8]) it was 0.0189 µM. The concentration for a half-maximal effect (EC50) in data set [2] (setting [10]) is 2.24 µM; in data set [5] (setting [12]), 0.0815 ± 0.0088 µM.
On to GC373, for which the 50% effective concentration (EC50) is 0.0197 ± 0.0046 µM in data set [3], 0.074 ± 0.0045 µM in data set [4] and 0.0292 ± 0.0037 µM in data set [5].
Take GC376: the EC50 was 0.0208 ± 0.0056 µM in data set [3]; 0.0759 ± 0.0232 µM in data set [4]; 0.022 ± 0.00513 µM in data set [2] (read-out: potency in inhibiting SARS-CoV-2 replicon replication (EC50), determined by % GFP signal); 0.0292 ± 0.00917 µM in data set [2] (read-out: potency in inhibiting SARS-CoV-2 replicon replication (EC50), determined by % luciferase activity); 0.0352 ± 0.0053 µM in data set [5]. Further, the “antiviral activity (in words)” value in data set [1] is “highly potent; also recorded: modestly active”. Also, in the data set on 293T cells, the cytotoxicity entry is “No cytotoxicity was detected”.
In the case of PF-00835231, the EC50 was determined as 0.0748 ± 0.02 µM in data set [3], 0.167 ± 0.0153 µM in data set [4] and 0.101 ± 0.033 µM in data set [5]. The “fold lower in Vero cells” value in data set [1] was 75-300 fold.

Usually EC50 stands for the concentration that produces a half-maximal response.
